Reference: US6309842A, “Use of modified tethers in screening compound libraries” (Glaxo Wellcome Inc., priority 1997, dated 2001)

Target: T1, STE2 receptor (Saccharomyces cerevisiae, UniProt D6VTK4)
T1 construct: expressed in transfected cells; host or cells: yeast strain ARY84 (Δste2::ura3, plasmid pRS416(URA3)-STE2)
T1 sequence (D6VTK4 1-431): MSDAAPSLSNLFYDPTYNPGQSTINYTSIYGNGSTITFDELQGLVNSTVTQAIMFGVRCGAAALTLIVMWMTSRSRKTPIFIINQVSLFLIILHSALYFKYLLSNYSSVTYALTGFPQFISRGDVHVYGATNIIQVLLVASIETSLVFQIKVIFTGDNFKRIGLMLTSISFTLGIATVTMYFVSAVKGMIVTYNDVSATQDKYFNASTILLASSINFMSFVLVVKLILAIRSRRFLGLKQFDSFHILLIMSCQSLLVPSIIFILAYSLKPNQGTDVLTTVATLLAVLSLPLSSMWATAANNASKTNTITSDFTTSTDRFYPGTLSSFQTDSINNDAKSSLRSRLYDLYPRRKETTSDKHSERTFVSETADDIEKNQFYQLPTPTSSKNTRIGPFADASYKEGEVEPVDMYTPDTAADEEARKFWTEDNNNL
Test: Bead tether modification by yeast acid phosphatase, FACScan of 3E7-coated beads
Format: cell-based
Conditions: 500 nM alpha factor, beads exposed 18 hr, 200 nM AF12402
From the text: This system employs yeast ARI 84 reporter cells bearing an STE2 receptor and containing a reporter construct in which a pho3 gene is linked to a FUS1 promoter. Acid phosphatase expressed by the yeast is used to dephosphorylate the substrate phospho-YGGFL-linker-biotin. (SEQ ID NO:25) As a result of dephosphorylation, the substrate can bind to a 3E7 antibody tether. The biotinylated portion of modified tethers is stained using a PE- or alkaline-phosphatase-conjugated streptavidin. Complexes with stained tethers are sorted by FACS™.
ARY84 culture from a fresh, 4-10 day old patch was grown in 3 ml SC minimal media minus Trp, Ura, Leu, pH adjusted to 6.15 using MES buffer 200 mM final at @30C overnight in a tube rotator. At A600, the growing culture was diluted to 0.1 A600 in duplicate in pH 6.15 SC media minus Trp, Ura, Leu. One diluted culture was induced by addition of alpha factor to 500 nM final concentration. 0.1 ml of the appropriate diluted induced or uninduced culture was added to wells of a BSA-blocked 96-well microtitre plate. […]
A desired amount of monobeads (at about 1×10^7 beads/ml) was washed once in 0.5 ml methanol, and twice in 1 ml PBS, pH 7.5. […] The density of beads was determined and about 1×10^5 beads were added to each well (after washing with PBS 0.1% BSA to remove the azide). […]
Staining was analyzed by running the beads through a Becton Dickinson FACScan™ machine. […]

## α-factor
  FACScan shift of beads, induced vs not induced yeast: 10 fold
